Experimental data as given in US20250017856A1, “CO-FORMULATION AND CO-DELIVERY OF IONIZABLE COLLOID FORMING DRUGS WITH NUCLEIC ACIDS” (THE GOVERNING COUNCIL OF THE UNIVERSITY OF TORONTO, priority 2023, published 2025).
Values joined by “and” are separate entries in the source; they are usually repeats but may differ in a detail not shown here. Equal values may be shown once.

Legend:
[1] = test system: firefly luciferase expression in mouse liver; assay: In vivo liver bioluminescence after i.v. injection of mFLuc nanoparticles; set-up: species or system BALB/c mice; conditions: tail vein, 1 mg/kg mRNA, 4 and 24 h
Protocol: Animal study protocols were approved by the Animal Care Committee at the University of Toronto and experiments were performed in accordance with the Guide to Care and Use of Experimental Animals (Canadian Council on Animal Care). FXNPs with encapsulated mFLuc and DIR (0.5 mol %) were administered (1 mg/kg in terms of mRNA) via tail vein injection to BALB/c mice. After 4 h and 24 h, mice were anesthetized using isoflurane and injected intraperitoneally with 150 mg/kg VivoGlo™ luciferin (Promega, Madison, WI). Whole-body luminescence was acquired by a PerkinElmer In-Vivo Imaging System Spectrum instrument after 10-20 minutes.

[2] = Zeta potential (Malvern Zetasizer); assay type: physicochemical; conditions: FxNP
Protocol: Zeta potential was measured by diluting FXNPs in phosphate to an ion concentration of 1 mM and using a Malvern Zetasizer Nano ZS instrument.

[3] = RNA encapsulation efficiency (modified Quant-iT RiboGreen assay) and loading; assay type: physicochemical; conditions: for Encapsulation efficiency (%) / Small molecule drug mass % / siRNA mass %: FxNP
Description: (§1) [NT] antisense (SEQ ID NO: 2): [NT] where “d” denotes a DNA base), siFLuc-2 (sense (SEQ ID NO: 3): [NT] antisense (SEQ ID NO: 4): [NT] where “d” denotes a DNA base and “m” indicates a 2'-O-methyl RNA base), sinLuc (sense (SEQ ID NO: 5): [NT] antisense SEQ ID NO: 6): [NT] where “d” denotes a DNA base), […]1 (sense (SEQ ID NO: 7): [NT] antisense (SEQ ID NO: 8): [NT] where “d” denotes a DNA base and “m” indicates a 2'-O-methyl RNA base), siNT (sense (SEQ ID NO: 9): [NT] antisense (SEQ ID NO: 10): [NT] where “d” denotes a DNA base and “m” indicates a 2'-O-methyl RNA base), mFLuc (EZ Cap Firefly Luciferase mRNA (5-moUTP), ApexBio), rRNA or RNA from Torula utilis yeast (T.U. RNA) was diluted in citrate buffer (50 or 25 mM, pH 4), malate buffer (25 mM, pH 4.0) or acetate buffer (25 mM, pH 4.0). A lipid/drug mix concentration of 5.5 mM was used with a total flow rate of 9 mL/min at a 3:1 ratio of aqueous to organic phase. […] After formulation, buffer exchange into PBS or Tris-buffered saline (TBS; pH 8.5) was performed using Amicon Ultra-4 centrifugal filters (molecular weight cut-off 10 kDa). Hydrodynamic diameter, polydispersity index (PDI), and scattering intensity were measured by dynamic light scattering (DLS) using a DynaPro Plate Reader II (Wyatt Technologies). The instrument was configured with a 60 mW 830 nm laser and a detector angle of 158°. A 25 μL sample of each formulation was pipetted into each well of a 384-well plate and measured with 20 acquisitions per sample at 25° C. […] Quant-iT RiboGreen reagent was added, and fluorescence intensity was quantified using a Tecan Infinite […] plate reader.

[4] = Hydrodynamic diameter and polydispersity index by dynamic light scattering; assay type: physicochemical; conditions: for Hydrodynamic diameter (nm) / PDI: FxNP
Description: as §1

FLuc in SKOV3-FLuc cells = assay: Model gene knockdown, firefly luciferase; assay type: cell-based
Protocol: For single-dose studies, 5×10^3 SKOV3-FLuc or 2×10^3 Vero-nLucP cells in 100 μL were plated in each well of a white-wall 96-well plate (Costar 3610) and allowed to adhere overnight. FXNP suspensions were diluted in PBS and 10 μL of each tested formulation was dosed in triplicate, followed by 100 μL of complete cell growth media to promote mixing. The final encapsulated siRNA concentration in each well was 50.0 nM. For dose-response studies, 1.25×10^3 SKOV3-FLuc cells in 25 μL were plated in each well of a white-wall 384-well plate (Greiner Bio-one 781073) and allowed to adhere overnight. Nanoparticle suspensions were diluted in PBS and 5 μL of each tested formulation was dosed in triplicate, followed by 20 μL of complete cell growth media to promote mixing. The final encapsulated siRNA concentration in each well is specified in each figure. For all studies, the plate was incubated for 24 h followed by removal of the media. For SKOV3-FLuc cells, fresh media was added, and the plate was incubated for an additional 24 h before removal of the media. Total cellular metabolic activity was quantified by addition of PrestoBlue™ according to the manufacturer's instructions, after which the reagent was subsequently removed, and expression of either firefly luciferase (SKOV3-FLuc) or nano luciferase (Vero-nLucP) was determined by Steady-Glo® Luciferase Assay System or Nano-Glo® Luciferase Assay System, respectively. Luminescence was measured using a Tecan Infinite Pro 200 plate reader. Cell metabolic activity and reporter gene expression are represented relative to cells treated with an equivalent volume of PBS. Reporter gene expression is normalized to cell metabolic activity. For dose-response studies, IC50 values were determined by non-linear regression analysis using eq. 3

[5] = ionizable compound (fulvestrant analog); cited from earlier work
SKOV3 cells = assay: Cellular uptake of DiD-labelled nanoparticles by fluorescence microscopy; assay type: cell-based; conditions: with DOPC or DSPE; 20 nM T.U. RNA, 3 h
Protocol: 2.5-5.0×10^3 SKOV3 cells or 1.0×10^4 T47D cells in 25 μL were plated in each well of a 384-well plate (Greiner Bio-One 781097) and allowed to adhere overnight. For endocytosis blocking studies, cells were washed once with Hank's Balanced Salt Solution (HBSS), and then fresh media containing an endocytosis blocker was added and plates were incubated at 37° C. for 30 min prior to dosing. For ApoE supplementation studies and endocytosis-blocking studies, serum free media, serum free media supplemented with ApoE (1.5 μg/mL), complete media, or complete media with hydroxydynasore (20 μM) was added for 30 min prior to dosing). […] The plate was incubated at 37° C. for 3 h after which the media was removed, and the cells were washed with HBSS, fixed for 15 min with 4% (m/v) PFA in PBS, and stained for 15 min with 5 μg/mL Hoechst in PBS before imaging by wide-field fluorescence microscopy imaging as described below.
Fluorescence images were acquired using a Zeiss Apotome Live Cell System (Axio Observer Z.1 inverted fluorescence microscope) with a long working distance 40× Plan Neofluor objective (NA=0.6, Carl Zeiss Canada), and X-Cite 120 LED fluorescence lamp (Lumen Dynamics), and an […]

T47D-R cells = assay: Confirmation of palbociclib resistance; assay type: cell-based; conditions: Homo sapiens; palbociclib-resistant T47D cells (T47D-R)
Protocol: SKOV3 cells were obtained from ATCC. SKOV3-luc cells were obtained from Cell Biolabs. Vero-E6-nLucP cells were a generous gift from Roman Melnyk. T47D cells were a gift from B. Neel (University Health Network). Palbociclib-resistant T47D cells (T47D-R) were developed by dose escalation of palbociclib up to 500-1000 nM over 6-12 months and was confirmed by a palbociclib IC50 greater than […]. Parental T47D cells (T47D-P) were cultured over the same time frame without palbociclib treatment. Cells were maintained in a humified incubator at 37° C. with 5% atmospheric CO2. RPMI 1640 (SKOV3, T47D) or EMEM (Vero-E6) were used as a base media. Cells were grown in 75 cm^2 tissue culture flasks with 10 mL of media supplemented with 10% FBS, 10 UI/mL penicillin and 10 μg/mL streptomycin. The cells were passaged once per week following detachment with trypsin-EDTA, replacement of the supernatant with fresh media, and subculture into a new flask with fresh media. Subculture ratios between 1:4 and 1:50 were used.

[6] = no cholesterol versus standard formulation

C[C@]12CC[C@@H]3c4ccc(O)cc4C[C@@H](CCCCCCCCC[S+]([O-])CCCC(F)(F)C(F)(F)F)[C@H]3[C@@H]1CC[C@@H]2O (stereo partly drawn) [FV, fulvestrant, reference compound]
liver bioluminescence [1]: did not show bioluminescence above the baseline
Zeta potential (mV) ([2]; siFLuc, DSPC): −19.23 mV
encapsulation and loading efficiencies of siRNA (in words) ([3]; DSPC formulations): low
Encapsulation efficiency (%) ([3]; siFLuc, DSPC): 14.5%
Small molecule drug mass % ([3]; siFLuc, DSPC): 52.8%
siRNA mass % ([3]; siFLuc, DSPC): 0.9%
Hydrodynamic diameter (nm) ([4]; siFLuc, DSPC): 204.7 nm
PDI ([4]; siFLuc, DSPC): 0.102

Cc1ccc(C(=O)OCc2ccc([C@@H](CN)C(=O)Nc3ccc4cnccc4c3)cc2)c(C)c1 [netarsudil]
IC50 (FLuc in SKOV3-FLuc cells; 50:0 netarsudil:SM-102, narrowed concentration range (<2 nM)): > 2 nM
IC50 (FLuc in SKOV3-FLuc cells; TBS, 40 mol % netarsudil with 10 mol % ALC-0315): 0.32 nM
IC50 (FLuc in SKOV3-FLuc cells; TBS, 40 mol % netarsudil with 10 mol % MC3): 0.77 nM
IC50 (FLuc in SKOV3-FLuc cells; TBS, 40 mol % netarsudil with 10 mol % SM-102): 0.16 nM
IC50 (FLuc in SKOV3-FLuc cells; neutralized in TBS, 50 mol % netarsudil, no ionizable lipid): 3.8 nM

CC12CCC3c4ccc(O)cc4CC(CCCCCCCCCS(=O)(CCCC(F)(F)C(F)(F)F)=NC(=O)CCn4ccnc4)C3C1CCC2O (stereo not drawn) [7c]
Zeta potential (mV) ([2]; siFLuc, DOPC): −8.02 mV
Zeta potential (mV) ([2]; siFLuc, DSPC): −10.15 mV
Zeta potential (mV) ([2]; sinLuc, DOPC): −10.97 mV
pKa [5]: 5.5
Encapsulation efficiency (%) ([3]; siFLuc, DOPC): 87.5%
Small molecule drug mass % ([3]; siFLuc, DOPC): 55.7%
siRNA mass % ([3]; siFLuc, DOPC): 4.4%
Encapsulation efficiency (%) ([3]; siFLuc, DSPC): 89.3%
Small molecule drug mass % ([3]; siFLuc, DSPC): 55.6%
siRNA mass % ([3]; siFLuc, DSPC): 4.5%
Encapsulation efficiency (%) ([3]; sinLuc, DOPC): 73.7%
Small molecule drug mass % ([3]; sinLuc, DOPC): 56.1%
siRNA mass % ([3]; sinLuc, DOPC): 3.8%
Hydrodynamic diameter (nm) ([4]; siFLuc, DOPC): 159.4 nm
PDI ([4]; siFLuc, DOPC): 0.043
Hydrodynamic diameter (nm) ([4]; siFLuc, DSPC): 136.0 nm
PDI ([4]; siFLuc, DSPC): 0.017
Hydrodynamic diameter (nm) ([4]; sinLuc, DOPC): 180.1 nm
PDI ([4]; sinLuc, DOPC): 0.072

Fc1ccc(-n2cc(CCCCN3CCC4(CC3)OCc3ccccc34)c3ccccc32)cc1 [siramesine, reference compound]
siRNA encapsulation efficiency ([3]; natively ionizable drug in place of fulvestrant analog, standard formulation): ~85% and ~95%
loss of encapsulated siRNA on removal of cholesterol [3, 6]: ~70%
nanoparticle formation with RNA cargos of varying molecular weight ([3]; siRNA, T.U. RNA, rRNA, mRNA): form nanoparticles encapsulating a range of RNA cargos
increase in particle size on removal of cholesterol [4, 6]: 4 fold
particle size ([4]; siRNA, standard formulation): ~100 nm
uptake relative to DSPC-based nanoparticles (SKOV3 cells): significantly improve uptake

CC12CCC3c4ccc(O)cc4CC(CCCCCCCCCS(=O)(CCCC(F)(F)C(F)(F)F)=NC(=O)Cn4ccnc4)C3C1CCC2O (stereo not drawn) [7b]
Zeta potential (mV) ([2]; siFLuc, DOPC): −7.61 mV
Zeta potential (mV) ([2]; siFLuc, DSPC): −12.50 mV
Zeta potential (mV) ([2]; sinLuc, DOPC): −11.53 mV
pKa [5]: 5.4
Encapsulation efficiency (%) ([3]; siFLuc, DOPC): 81.7%
Small molecule drug mass % ([3]; siFLuc, DOPC): 55.4%
siRNA mass % ([3]; siFLuc, DOPC): 4.2%
Encapsulation efficiency (%) ([3]; siFLuc, DSPC): 85.5%
Small molecule drug mass % ([3]; siFLuc, DSPC): 55.2%
siRNA mass % ([3]; siFLuc, DSPC): 4.4%
Encapsulation efficiency (%) ([3]; sinLuc, DOPC): 84.9%
Small molecule drug mass % ([3]; sinLuc, DOPC): 55.3%
siRNA mass % ([3]; sinLuc, DOPC): 4.4%
Hydrodynamic diameter (nm) ([4]; siFLuc, DOPC): 289.8 nm
PDI ([4]; siFLuc, DOPC): 0.003
Hydrodynamic diameter (nm) ([4]; siFLuc, DSPC): 141.0 nm
PDI ([4]; siFLuc, DSPC): 0.019
Hydrodynamic diameter (nm) ([4]; sinLuc, DOPC): 296.2 nm
PDI ([4]; sinLuc, DOPC): 0.012

CC(=O)c1c(C)c2cnc(Nc3ccc(N4CCNCC4)cn3)nc2n(C2CCCC2)c1=O [palbociclib]
IC50 (T47D-R cells): > 1000 nM

CCCCCCCCCCCOC(=O)CCCCCN(CCO)CCCCCCCC(=O)OC(CCCCCCCC)CCCCCCCC [SM-102]
effect of removing netarsudil without replacement (FLuc in SKOV3-FLuc cells; netarsudil:SM-102 0:10): decrease in potency and loss of encapsulated siRNA
change of IC50 on replacing all of the netarsudil with SM-102 (FLuc in SKOV3-FLuc cells; netarsudil:SM-102 0:50): non-significant decrease in IC50
